Literature values as cited in patent US20200147194A1, “PEPTIDE VACCINE AND PEPTIDE VACCINE COMPOSITION FOR CRANIAL NERVE DISEASE” (KEIO UNIVERSITY, priority 2017, published 2020).

Test system: pre-alteration peptides (SEQ ID NO:12)

## SEQ ID NO:16: SEQ ID NO:12 with leucine substituted for the second amino acid from the N-terminus; HLA-A*02:01-binding, VEGFR-2 (VLAMFFWLL; modified peptide)
  CTLs induced by stimulation by the peptide: recognition of pre-alteration peptides (SEQ ID NO:12): able recognize and damage
